Measured values from patent publication EP4745138A1, “THIO-GLUTARIMIDO ISOINDOLINONE DERIVATIVE, BIFUNCTIONAL PROTEIN DEGRADER CONTAINING SAME, AND USES THEREOF” (Gluetacs Therapeutics (Shanghai) Co., Ltd., priority 2023, dated 2025).
Where two headings read alike, the source gives them in different places.

Key:
[1] = system: MM.1S; test: Tumor cell proliferation inhibition (CellTiter-Meiluncell Luminescent Cell Viability Assay); format: cell-based; settings: Homo sapiens, MM1.S; for inhibition at 0.01 µM: read-out: Inhibition Rate at 10 nM (%); for inhibition at 0.5 µM: read-out: Inhibition Rate at 500 nM (%)
Description: (§1) The tumor cells used herein were cultured in a cell culture medium listed in table 3 at 37°C in an incubator with 5% CO2. Prior to experimentation, all cell lines used were correctly identified by STR profiling, and tested negative for mycoplasma contamination using a mycoplasma detection kit through routine screenings. Table 3. Tumor cells and cell culture medium used in the present disclosure
(§2) The IC50 values of the compounds of the present disclosure (including the compounds in Table 1, Table 2, and Examples) were determined using the CellTiter-Meiluncell Luminescent Cell Viability Assay Kit from Dalian Meilun Biotech Co., Ltd. The detailed procedure is as follows: Tumor cells were seeded in 96-well cell culture plates at the densities specified in Table 4. On the following day, the test compounds of the present disclosure were subjected to serial dilution. […] Subsequently, 0.5 µL of the test compound dilution was transferred into the 96-well plate containing the cells, with each well containing 100 µL of cell culture medium. […] Into the 96-well plate, the diluted test compounds and corresponding detection reagents were added, resulting in final test compound concentrations of 500 nM and 10 nM, respectively. The experimental procedure is described below using the diluted 2 µM test compound as an example.
(§3) 0.5 µL of the aforementioned diluted compound of the present disclosure (including the compounds in Table 1, Table 2, and Examples) was added to the seeded cells in 100 µL of medium, yielding a final test compound concentration of 10 nM. After the cells were treated with the compounds of the present disclosure for a specified period, the cell viability assay reagent was added to the culture medium according to the kit's instructions to determine cell viability. […] All controls were treated using the same procedure as the compounds of the present disclosure. […] Seeding protocol and treatment time for tumor cells

[2] = system: RPMI-8226; test: as above; format: cell-based; settings: Homo sapiens, 96 hours; for inhibition at 0.01 µM: 10 nM, read-out: Inhibition Rate at 10 nM (%); for inhibition at 0.5 µM: 500 nM, read-out: Inhibition Rate at 500 nM (%)
Description: as §1, §2, §3

[3] = system: MV-4-11; test: as above; format: cell-based; settings: Homo sapiens, 96 hours; for inhibition at 0.01 µM: MV4-11, 10 nM, read-out: Inhibition Rate at 10 nM (%); for inhibition at 0.5 µM: MV4-11, 500 nM, read-out: Inhibition Rate at 500 nM (%)
Description: as §1, §2, §3

[4] = system: MCF-7; test: as above; format: cell-based; settings: Homo sapiens, 96 hours, Table I-2, ALK inhibitors; for inhibition at 0.01 µM: MCF7, 10 nM, read-out: Inhibition Rate at 10 nM (%); for inhibition at 0.5 µM: MCF7, 500 nM, read-out: Inhibition Rate at 500 nM (%)
Description: as §1, §2, §3

[5] = biological target: T1, human Cereblon WT GST-tagged protein (Homo sapiens, UniProt Q96SW2); test: CRBN-binding affinity, HTRF (CEREBLON BINDING kit); settings: for inhibition at 0.5 µM: read-out: Inhibition Rate at 0.5 µM (%); for inhibition at 2 µM: read-out: Inhibition Rate at 2 µM (%)
T1 construct: purchased CISBIO 64BDCRBNPEH
T1 sequence (Q96SW2 whole entry): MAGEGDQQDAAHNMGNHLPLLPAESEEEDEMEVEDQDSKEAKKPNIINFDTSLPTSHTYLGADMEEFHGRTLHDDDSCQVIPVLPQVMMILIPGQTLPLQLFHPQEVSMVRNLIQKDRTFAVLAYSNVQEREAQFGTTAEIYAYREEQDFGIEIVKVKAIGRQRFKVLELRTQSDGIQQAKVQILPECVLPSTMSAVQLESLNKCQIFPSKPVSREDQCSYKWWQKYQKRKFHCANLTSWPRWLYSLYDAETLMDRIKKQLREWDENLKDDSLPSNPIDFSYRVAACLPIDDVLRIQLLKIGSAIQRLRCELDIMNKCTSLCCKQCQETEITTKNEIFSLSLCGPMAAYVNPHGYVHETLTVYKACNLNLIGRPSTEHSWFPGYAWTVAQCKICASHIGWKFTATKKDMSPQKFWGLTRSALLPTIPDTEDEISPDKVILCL
How it was run: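 Readout is homogeneous time-resolved fluorescence, measuring displacement of a thalidomide-red tracer from GST-tagged Cereblon detected by a europium anti-GST antibody. Compounds were tested at final 2 µM and 0.5 µM after dilution in diluent #9 (1X).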

[6] = system: SW620; test: Tumor cell proliferation inhibition (CellTiter-Meiluncell Luminescent Cell Viability Assay); format: cell-based; settings: Homo sapiens, 96 hours, Table I-10, BCR-ABL inhibitors; for inhibition at 0.01 µM: SW-620, 10 nM, read-out: Inhibition Rate at 10 nM (%); for inhibition at 0.5 µM: SW-620, 500 nM, read-out: Inhibition Rate at 500 nM (%)
Description: as §1, §2, §3

[7] = MM.1S, 10 nM, 96 hours, Table I-2, ALK inhibitors
[8] = MM.1S, 500 nM, 96 hours, Table I-2, ALK inhibitors
[9] = Table I-8, SMARCA2/4 inhibitors
[10] = MM.1S, 10 nM, 96 hours, Table I-11, RSK inhibitors
[11] = MM.1S, 500 nM, 96 hours, Table I-11, RSK inhibitors

CC(C)CCN1c2nc(Nc3cc(F)c(O)c(F)c3)ncc2N(C)C(=O)C1C (stereo not drawn) [BI-D1870, reference compound]
inhibition at 0.01 µM ([1]; 96 h): 114%
inhibition at 0.5 µM ([1]; 96 h): 20 to 30%
inhibition at 0.01 µM ([2]; Table I-11, RSK inhibitors): 10 to 20%
inhibition at 0.5 µM ([2]; Table I-11, RSK inhibitors): 10 to 20%
inhibition at 0.01 µM ([3]; Table I-11, RSK inhibitors): 0 to 5%
inhibition at 0.5 µM ([3]; Table I-11, RSK inhibitors): 20 to 30%

Cc1cc(Nc2ncc(Cl)c(Nc3ccccc3S(=O)(=O)C(C)C)n2)c(OC(C)C)cc1C1CCN(Cc2ccc3c(c2)CN(C2CCC(=O)NC2=O)C3=S)CC1 (stereo not drawn) [GT-08674, 3-(5-((4-(4-((5-chloro-4-((2-(isopropylsulfonyl)pheny 1)amino)pyrimidin-2-yl)amino)-5-isopropoxy-2-methylphenyl)piperidin-1-yl)methyl)-1-thioxoisoindolin-2-yl)piperidine-2,6-dione]
inhibition at 0.01 µM [1, 7]: 30 to 40%
inhibition at 0.5 µM [1, 8]: 80 to 100%
inhibition at 0.01 µM [4]: 30 to 40%
inhibition at 0.5 µM [4]: 60 to 70%
inhibition at 0.01 µM ([3]; Table I-2, ALK inhibitors): 0 to 10%
inhibition at 0.5 µM ([3]; Table I-2, ALK inhibitors): 30 to 40%
inhibition at 0.5 µM [5]: 40 to 53%
inhibition at 2 µM [5]: 53 to 60%

COc1cc(N2CCN(Cc3cccc4c3CN(C3CCC(=O)NC3=O)C4=S)CC2)ccc1Nc1ncc(Cl)c(Nc2ccccc2P(C)(C)=O)n1 (stereo not drawn) [GT-08677, 3-(4-((4-(4-((5-chloro-4-((2-(dimethylphosphoryl)phenyl)amino)pyrimidin-2-yl)amino)-3-methoxyphenyl)piperazin-1-yl)methyl)-1-thioxoisoindolin-2-yl)piperidine-2,6-dione]
inhibition at 0.01 µM [1, 7]: 10 to 20%
inhibition at 0.5 µM [1, 8]: 20 to 30%
inhibition at 0.01 µM [4]: -5 to 0%
inhibition at 0.5 µM [4]: 30 to 40%
inhibition at 0.01 µM ([3]; Table I-2, ALK inhibitors): 0 to 10%
inhibition at 0.5 µM ([3]; Table I-2, ALK inhibitors): 60 to 70%
inhibition at 0.5 µM [5]: 53 to 60%
inhibition at 2 µM [5]: 80 to 100%

Cc1cc(S(=O)(=O)N2CCN(Cc3ccc4c(c3)CN(C3CCC(=O)NC3=O)C4=S)CC2)ccc1Nc1ncc(Br)c(Nc2cccc(F)c2C(N)=O)n1 (stereo not drawn) [GT-08714, 2-((5-bromo-2-((4-((4-((2-(2,6-dioxopiperidin-3-yl)-1-thioxoisoindolin-5-yl)methyl)piperazin-1-yl)sulfonyl)-2-methylphenyl)amino)pyrimidin-4-yl)amino)-6-fluorobenzamide]
inhibition at 0.01 µM ([1]; MM.1S, 10 nM, 96 hours, Table I-8, SMARCA2/4 inhibitors): 30 to 40%
inhibition at 0.5 µM ([1]; MM.1S, 500 nM, 96 hours, Table I-8, SMARCA2/4 inhibitors): 50 to 60%
inhibition at 0.01 µM [2, 9]: 30 to 40%
inhibition at 0.5 µM [2, 9]: 40 to 50%
inhibition at 0.5 µM [5]: 53 to 60%
inhibition at 2 µM [5]: 60 to 80%

Cc1ccc(C(=O)Nc2ccc(CN3CCN(Cc4cccc5c4CN(C4CCC(=O)NC4=O)C5=S)CC3)c(C(F)(F)F)c2)cc1C#Cc1cnc2cccnn12 (stereo not drawn) [GT-08773, N-(4-((4-((2-(2,6-dioxopiperidin-3-yl)-1-thioxoisoindolin-4-yl)methyl)piperazin-1-yl)methyl)-3-(trifluoromethyl)phenyl)-3-(imidazo[1,2-b]pyridazin-3-ylethynyl)-4-methylbenzamide]
inhibition at 0.01 µM ([1]; MM.1S, 10 nM, 96 hours, Table I-10, BCR-ABL inhibitors): 10 to 20%
inhibition at 0.5 µM ([1]; MM.1S, 500 nM, 96 hours, Table I-10, BCR-ABL inhibitors): 80 to 100%
inhibition at 0.01 µM ([2]; Table I-10, BCR-ABL inhibitors): 5 to 10%
inhibition at 0.5 µM ([2]; Table I-10, BCR-ABL inhibitors): 60 to 70%
inhibition at 0.01 µM ([3]; Table I-10, BCR-ABL inhibitors): 30 to 40%
inhibition at 0.5 µM ([3]; Table I-10, BCR-ABL inhibitors): 80 to 100%
inhibition at 0.01 µM [6]: 0 to 5%
inhibition at 0.5 µM [6]: 70 to 80%
inhibition at 0.5 µM [5]: 30 to 40%
inhibition at 2 µM [5]: 60 to 80%

C[C@@H]1CNC(=O)c2cc3ccc(C(=O)Nc4cnn(Cc5ccc(N6CCN(Cc7ccc8c(c7)CN(C7CCC(=O)NC7=O)C8=S)CC6)cc5)c4)nc3n21 (stereo partly drawn) [GT-08777, (9R)-N-(1-(4-(4-((2-(2,6-dioxopiperidin-3-yl)-1-thioxoisoindolin-5-yl)methyl)piperazin-1-yl)benzyl)-1H-pyrazol-4-yl)-9-methyl-6-oxo-6,7,8,9-tetrahydropyrido[3',2':4,5]pyrrolo[1,2-a]pyrazine-2-carboxamide]
inhibition at 0.01 µM [1, 10]: 20 to 30%
inhibition at 0.5 µM [1, 11]: 50 to 60%
inhibition at 0.01 µM ([2]; Table I-11, RSK inhibitors): 0 to 5%
inhibition at 0.5 µM ([2]; Table I-11, RSK inhibitors): 40 to 50%
inhibition at 0.01 µM ([3]; Table I-11, RSK inhibitors): 20 to 30%
inhibition at 0.5 µM ([3]; Table I-11, RSK inhibitors): 60 to 70%
inhibition at 0.5 µM [5]: 80 to 100%
inhibition at 2 µM [5]: 60 to 80%

C[C@@H]1CNC(=O)c2cc3ccc(C(=O)Nc4cnn(Cc5ccc(N6CCC(N7CCN(Cc8ccc9c(c8)CN(C8CCC(=O)NC8=O)C9=S)CC7)CC6)cc5)c4)nc3n21 (stereo partly drawn) [GT-08778, (9R)-N-(1-(4-(4-(4-((2-(2,6-dioxopiperidin-3-yl)-1-thioxoisoindolin-5-yl)methyl)piperazin-1-yl)piperidin-1-yl)benzyl)-1H-pyrazol-4-yl)-9-methyl-6-oxo-6,7,8,9-tetrahydropyrido[3',2':4,5]pyrrolo[1,2-a]pyrazine-2-carboxamide]
inhibition at 0.01 µM [1, 10]: 40 to 50%
inhibition at 0.5 µM [1, 11]: 80 to 100%
inhibition at 0.01 µM ([2]; Table I-11, RSK inhibitors): 10 to 20%
inhibition at 0.5 µM ([2]; Table I-11, RSK inhibitors): 50 to 60%
inhibition at 0.01 µM ([3]; Table I-11, RSK inhibitors): 50 to 60%
inhibition at 0.5 µM ([3]; Table I-11, RSK inhibitors): 80 to 100%
inhibition at 0.5 µM [5]: 80 to 100%
inhibition at 2 µM [5]: 80 to 100%

Nc1nnc(-c2ccccc2O)cc1N1CCNCC1 [GTC00645]
inhibition at 0.01 µM ([1]; 96 h): 15 to 20%
inhibition at 0.5 µM ([1]; 96 h): 15 to 20%
inhibition at 0.01 µM [2, 9]: -5 to 0%
inhibition at 0.5 µM [2, 9]: -5 to 0%
inhibition at 0.01 µM [3, 9]: 10 to 15%
inhibition at 0.5 µM [3, 9]: 10 to 15%

Cc1ccc(NC(=O)c2ccc(CN3CCN(C)CC3)cc2)cc1Nc1nccc(-c2cccnc2)n1 [imatinib]
inhibition at 0.01 µM ([2]; Table I-10, BCR-ABL inhibitors): 5 to 10%
inhibition at 0.5 µM ([2]; Table I-10, BCR-ABL inhibitors): 10 to 20%
inhibition at 0.01 µM ([3]; Table I-10, BCR-ABL inhibitors): 0 to 5%
inhibition at 0.5 µM ([3]; Table I-10, BCR-ABL inhibitors): 0 to 5%
inhibition at 0.01 µM [6]: 5 to 10%
inhibition at 0.5 µM [6]: 10 to 20%
